PubChem BioAssay (NCI)
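Five concentrations, 48 hours, 96-well plates. TGI: concentration producing complete growth inhibition.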

Tests used:
Assay in all cases: NCI anticancer screen, dose series, 48 h
COLO 205 colon = system: COLO 205 colon
RXF 393 renal = system: RXF 393 renal
SR leukemia = system: SR leukemia
PC-3 prostate = system: PC-3 prostate
MALME-3M melanoma = system: MALME-3M melanoma
RPMI-8226 leukemia = system: RPMI-8226 leukemia
SK-MEL-28 melanoma = system: SK-MEL-28 melanoma
SF-295 CNS = system: SF-295 CNS
HT29 colon = system: HT29 colon
SNB-75 CNS = system: SNB-75 CNS
U251 CNS = system: U251 CNS
NCI-H522 lung = system: NCI-H522 lung
DU-145 prostate = system: DU-145 prostate
UACC-62 melanoma = system: UACC-62 melanoma
BT-549 breast = system: BT-549 breast
CCRF-CEM leukemia = system: CCRF-CEM leukemia
LOX IMVI melanoma = system: LOX IMVI melanoma
EKVX NSCLC = system: EKVX NSCLC
OVCAR-4 ovarian = system: OVCAR-4 ovarian
HL-60(TB) leukemia = system: HL-60(TB) leukemia

Row | Structure (SMILES) | TGI (COLO 205 colon) [µM] | TGI (RXF 393 renal) [µM] | TGI (SR leukemia) [µM] | TGI (PC-3 prostate) [µM] | TGI (MALME-3M melanoma) [µM] | TGI (RPMI-8226 leukemia) [µM] | TGI (SK-MEL-28 melanoma) [µM] | TGI (SF-295 CNS) [µM] | TGI (HT29 colon) [µM] | TGI (SNB-75 CNS) [µM] | TGI (U251 CNS) [µM] | TGI (NCI-H522 lung) [µM] | TGI (DU-145 prostate) [µM] | TGI (UACC-62 melanoma) [µM] | TGI (BT-549 breast) [µM] | TGI (CCRF-CEM leukemia) [µM] | TGI (LOX IMVI melanoma) [µM] | TGI (EKVX NSCLC) [µM] | TGI (OVCAR-4 ovarian) [µM] | TGI (HL-60(TB) leukemia) [µM]
1 | O=C(NC1CCC(=O)N1C(=O)OCc1ccccc1)OCc1ccccc1 (stereo not drawn) | > 100 | > 100 | > 100 | > 100 | > 100 | > 100 | > 100 | > 100 | > 100 | > 100 | > 100 | > 100 | > 100 | > 100 | > 100 | – | – | – | – | –
2 | CC1=C2C(=O)OCC23C=COC3(C)O1 (stereo not drawn) | 47.7 | > 100 | > 100 | > 100 | 74.5 | > 100 | 46.3 | > 100 | > 100 | 77.3 | > 100 | 78.9 | > 100 | 46.7 | > 100 | > 100 | > 100 | > 100 | > 100 | –
3 | Nc1cc2c3c(cccc3c1)C(=O)N(c1ccc(OCCN3CCCCC3)cc1)C2=O | 35.7 | 35.7 | 36.6 | 32.9 | 19.8 | 41.7 | 44.8 | 33.4 | 31.9 | 30.6 | 61.6 | 35.2 | 33.5 | 36.6 | 38.4 | 88.3 | 35.4 | 45.7 | 35.7 | 26.5
4 | CCOC(=O)c1sc2nc(SC)nc3c2c1N=CN3c1ccccc1Cl | > 100 | 68.6 | 89.9 | > 100 | > 100 | > 100 | > 100 | > 100 | > 100 | 36.3 | > 100 | > 100 | > 100 | > 100 | > 100 | > 100 | > 100 | > 100 | 42.4 | > 100
5 | Cc1cc2c(c(C=Nc3ccc([N+](=O)[O-])cc3)c1)OC1(C=C2)Oc2ccccc2C(=O)N1C (stereo not drawn) | 54.3 | 47.5 | 55.3 | 44.4 | – | 93.1 | 44.8 | 77.1 | 36.3 | 51.8 | 42.8 | > 100 | 54.2 | 34.9 | 58.7 | 39.8 | 27.1 | 43.6 | 64.2 | > 100
6 | COC(=O)[C@@H]1C[C@H]([Se]c2ccccc2)CN1S(=O)(=O)c1ccc(C)cc1 | > 100 | > 100 | > 100 | > 100 | > 100 | > 100 | > 100 | > 100 | > 100 | 44.5 | > 100 | > 100 | > 100 | > 100 | > 100 | > 100 | > 100 | > 100 | > 100 | > 100
